Our source for the IC50 values is patent US9951052B2, “Inhibitors of the renal outer medullary potassium channel” (Merck Sharp & Dohme Corp., priority 2013, dated 2018).

This assay has as its target T1, hROMK (hKir1.1) (Homo sapiens, UniProt P48048).
T1 construct: expressed in transfected cells
T1 sequence (P48048 1-391): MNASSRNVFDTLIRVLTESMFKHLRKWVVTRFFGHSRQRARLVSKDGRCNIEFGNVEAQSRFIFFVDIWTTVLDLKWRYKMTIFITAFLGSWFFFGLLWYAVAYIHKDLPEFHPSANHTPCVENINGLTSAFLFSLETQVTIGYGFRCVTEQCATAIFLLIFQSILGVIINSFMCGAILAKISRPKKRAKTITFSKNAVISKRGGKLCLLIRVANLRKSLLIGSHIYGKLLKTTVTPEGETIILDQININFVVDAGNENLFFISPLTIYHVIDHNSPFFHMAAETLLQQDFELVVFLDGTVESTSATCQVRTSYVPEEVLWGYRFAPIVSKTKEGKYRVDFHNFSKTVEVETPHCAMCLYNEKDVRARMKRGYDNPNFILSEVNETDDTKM
The assay is described as follows: Thallium Flux Assay (ROMK channel functional thallium flux, FLIPR-Tetra). The settings on record: HEK293 cells stably expressing hROMK (hKir1.1); 30 min incubation with compound; HCl salt run where final product was an HCl salt. It counts as cell-based. The procedure: The following Thallium Flux Assay was performed on each of the final product compounds in the Examples. When the final product of an Example was an HCl salt, the salt was run in the Assay.
Cell Culture Conditions—HEK293 cells stably expressing hROMK (hKir1.1) were grown at 37° C. in a 10% CO2 humidified incubator in complete growth media: Dulbecco's Modified Eagle Medium supplemented with non-essential amino acids, Penicillin/Streptomycin/Glutamine, G418 and FBS. At >80% confluency, aspirate the media from the flask and rinse with 10 mL Calcium/Magnesium-free PBS. Add 5 mL of 1× trypsin (prepared in Ca/Mg Free PBS) to T-225 flask and return flask to 37° C./CO2 incubator for 2-3 minutes. To dislodge the cell, gently bang the side of the flask with your hand. Triturate the cells completely and then transfer the cells to 25 mL complete media. Centrifuge at 1,500 rpm for 6 min followed by resuspension in complete growth media and determine cell concentration. For typical re-seeding, 4E6 cells/T-225 flask will attain >80% confluency in 4 days. Under ideal growth conditions and appropriate tissue culture practices, this cell line is stable for 40-45 passages.
FluxOR Kit Components (Invitrogen F10017)
• FluxOR™ Reagent (Component A) • FluxOR™ Assay Buffer (Component B)—10× Concentrate • PowerLoad™ Concentrate (Component C)—100× Concentrate • Probenecid (Component D)—Lyophilized sample is kept at −20° C. Water soluble, 100× after solubilization in 1 mL water. Store at 4° C. • FluxOR™ Chloride-free Buffer (Component E)—5× Concentrate • Potassium sulfate (K2SO4) Concentrate (Component F)—125 mM in water. Store at 4° C. • Thallium sulfate (T12SO4) Concentrate (Component G)—50 mM in water. Store at 4° C. • DMSO (dimethyl sulfoxide, Component H)—1 mL (100%) Reagent Preparation: FluxOR Working Solutions • 1000× FluxOR™ Reagent: Reconstitute a vial of component A in 100 μl DMSO; Mix well; Store 10 μl aliquots at −20° C. • 1× FluxOR™ Assay Buffer: Dilute Component B 10-fold with water; Adjust pH to 7.4 with Hepes/NaOH; Filter and store at 4° C. • Probenecid/Assay Buffer: 100 mL of 1× FluxOR™ Assay Buffer; 1 mL of reconstituted component D; Store at 4° C. • Loading Buffer (per microplate): 10 μl 1000× FluxOR™ Reagent; 100 μl component C; 10 mL Probenecid/Assay Buffer • Compound Buffer (per microplate): 20 mL Probenecid/Assay Buffer; 0.3 mM ouabain (10 mM ouabain in water can be stored in amber bottle/aluminum foil at room temperature); Test compound • 1× FluxOR™ Chloride-Free Buffer: Prepare 1× working solution in water. Can be stored at room temperature • Stimulant Buffer (prepared at 5× final concentration in 1× FluxOR™ Chloride-Free Buffer): 7.5 mM Thallium sulfate and 0.75 mM Potassium sulfate (to give a final assay concentration of 3 mM Thallium/0.3 mM Potassium). Store at 4° C. when not in use.
Assay protocol—The ROMK channel functional thallium flux assay is performed in 384 wells, using the FLIPR-Tetra instrument. HEK-hKir1.1 cells are seeded in Poly-D-Lysine microplates and kept in a 37° C.-10% CO2 incubator overnight. On the day of the experiment, the growth media is replaced with the FluxOR™ reagent loading buffer and incubated, protected from light, at ambient temperature (23-25° C.) for 90 min. The loading buffer is replaced with assay buffer±test compound followed by 30 min incubation at ambient temperature, where the Thallium/Potassium stimulant is added to the microplate.
• 1. Seed HEK-hKir1.1 cells (50 μl at 20,000 cells/well) in 384-well PDL coated Microplates • 2. Allow cells to adhere overnight in humidified 37° C./10% CO2 incubator • 3. Completely remove cell growth media from microplate and replace with 25 μl loading buffer • 4. Incubate Microplate at room temperature, protected from light, for 90 min • 5. Remove loading buffer and replace with 25 μl 1× Assay Buffer±test compound. • 6. Incubate microplate at room temperature, protected from light, for 30 min • 7. […]
One may read the IC50 as the midpoint of a concentration-inhibition curve. With `Cc1c([C@@H](O)CN2CCC(C(=O)Nc3ccns3)CC2)ccc2c1COC2=O` [Example 22, 1-[(2R)-2-hydroxy-2-(4-methyl-1-oxo-1,3-dihydro-2-benzofuran-5-yl)ethyl]-N-(isothiazol-5-yl)piperidine-4-carboxamide], the half-inhibitory concentration (IC50) worked out at 40 nM.

On to `Cc1c([C@@H](O)CN2CCC(C(=O)Nc3ccc(-n4cccn4)cc3)CC2)ccc2c1COC2=O` [Example 23, (R)-N-(4-(1H-pyrazol-1-yl)phenyl)-1-(2-hydroxy-2-(4-methyl-1-oxo-1,3-dihydroisobenzofuran-5-yl)ethyl)piperidine-4-carboxamide], for which the IC50 turned out to be 80 nM.

Turning to `Cc1c([C@@H](O)CN2CCC(C(=O)Nc3cccc(-n4cnnn4)c3)CC2)ccc2c1COC2=O` [Example 24, (R)-N-(3-(1H-tetrazol-1-yl)phenyl)-1-(2-hydroxy-2-(4-methyl-1-oxo-1,3-dihydroisobenzofuran-5-yl)ethyl)piperidine-4-carboxamide], the half-inhibitory concentration (IC50) amounted to 90 nM.

Take `CCOc1cc(NC(=O)C2CCN(C[C@H](O)c3ccc4c(c3C)COC4=O)CC2)ccc1C#N` [Example 25, (R)-N-(4-cyano-3-ethoxyphenyl)-1-(2-hydroxy-2-(4-methyl-1-oxo-1,3-dihydroisobenzofuran-5-yl)ethyl)piperidine-4-carboxamide]: the IC50 amounted to 180 nM.

Take `COc1cc(NC(=O)C2CCN(C[C@H](O)c3ccc4c(c3C)COC4=O)CC2)ccc1C#N` [Example 26, (R)-N-(4-cyano-3-methoxyphenyl)-1-(2-hydroxy-2-(4-methyl-1-oxo-1,3-dihydroisobenzofuran-5-yl)ethyl)piperidine-4-carboxamide]: the IC50 was 150 nM.

Regarding `Cc1c([C@@H](O)CN2CCC(C(=O)Nc3cnoc3)CC2)ccc2c1COC2=O` [Example 27, (R)-1-(2-hydroxy-2-(4-methyl-1-oxo-1,3-dihydroisobenzofuran-5-yl)ethyl)-N-(isoxazol-4-yl)piperidine-4-carboxamide], the IC50 was determined as 140 nM.

Regarding `Cc1c([C@@H](O)CN2CCC(C(=O)Nc3cnsc3)CC2)ccc2c1COC2=O` [Example 28, (R)-1-(2-hydroxy-2-(4-methyl-1-oxo-1,3-dihydroisobenzofuran-5-yl)ethyl)-N-(isothiazol-4-yl)piperidine-4-carboxamide], the half-maximal inhibitory concentration (IC50) turned out to be 100 nM.

As for `Cc1c([C@@H](O)CN2CCC(C(=O)Nc3nc(C#N)cs3)CC2)ccc2c1COC2=O` [Example 29, (R)-N-(4-cyanothiazol-2-yl)-1-(2-hydroxy-2-(4-methyl-1-oxo-1,3-dihydroisobenzofuran-5-yl)ethyl)piperidine-4-carboxamide], the IC50 worked out at 240 nM.

Regarding `Cc1c([C@@H](O)CN2CCC(C(=O)Nc3snc4ccncc34)CC2)ccc2c1COC2=O` [Example 30, (R)-1-(2-hydroxy-2-(4-methyl-1-oxo-1,3-dihydroisobenzofuran-5-yl)ethyl)-N-(isothiazolo[4,3-c]pyridin-3-yl)piperidine-4-carboxamide], the IC50 is 100 nM.

For the compound `Cc1nsc(NC(=O)C2CCN(C[C@H](O)c3ccc4c(c3C)COC4=O)CC2)n1` [Example 31, (R)-1-(2-hydroxy-2-(4-methyl-1-oxo-1,3-dihydroisobenzofuran-5-yl)ethyl)-N-(3-methyl-1,2,4-thiadiazol-5-yl)piperidine-4-carboxamide], the half-maximal inhibitory concentration (IC50) amounted to 160 nM.

With `Cc1c([C@@H](O)CN2CCC(C(=O)Nc3nc(C4CC4)ns3)CC2)ccc2c1COC2=O` [Example 32, (R)-N-(3-cyclopropyl-1,2,4-thiadiazol-5-yl)-1-(2-hydroxy-2-(4-methyl-1-oxo-1,3-dihydroisobenzofuran-5-yl)ethyl)piperidine-4-carboxamide], the IC50 was 300 nM.

Consider `Cc1c([C@@H](O)CN2CCC(C(=O)Nc3ccc(-c4csnn4)cc3)CC2)ccc2c1COC2=O` [Example 33, (R)-N-(4-(1,2,3-thiadiazol-4-yl)phenyl)-1-(2-hydroxy-2-(4-methyl-1-oxo-1,3-dihydroisobenzofuran-5-yl)ethyl)piperidine-4-carboxamide], for which the IC50 worked out at 170 nM.

With `Cc1c([C@@H](O)CN2CCC(C(=O)Nc3cncc(F)c3)CC2)ccc2c1COC2=O` [Example 34, (R)-N-(5-fluoropyridin-3-yl)-1-(2-hydroxy-2-(4-methyl-1-oxo-1,3-dihydroisobenzofuran-5-yl)ethyl)piperidine-4-carboxamide], the IC50 was found to be 340 nM.

Consider `Cc1c([C@@H](O)CN2CCC(C(=O)Nc3ccncc3)CC2)ccc2c1COC2=O` [Example 35, (R)-1-(2-hydroxy-2-(4-methyl-1-oxo-1,3-dihydroisobenzofuran-5-yl)ethyl)-N-(pyridin-4-yl)piperidine-4-carboxamide], for which the concentration for half-maximal inhibition (IC50) is 420 nM.

For `Cc1cc(NC(=O)C2CCN(C[C@H](O)c3ccc4c(c3C)COC4=O)CC2)sn1` [Example 36, (R)-1-(2-hydroxy-2-(4-methyl-1-oxo-1,3-dihydroisobenzofuran-5-yl)ethyl)-N-(3-methylisothiazol-5-yl)piperidine-4-carboxamide], the half-inhibitory concentration (IC50) was 120 nM.

In the case of `Cc1c([C@@H](O)CN2CCC(O)(C(=O)Nc3ccns3)CC2)ccc2c1COC2=O` [Example 38, (R)-4-hydroxy-1-(2-hydroxy-2-(4-methyl-1-oxo-1,3-dihydroisobenzofuran-5-yl)ethyl)-N-(isothiazol-5-yl)piperidine-4-carboxamide], the concentration for half-maximal inhibition (IC50) turned out to be 110 nM.

For the compound `Cc1cc(NC(=O)C2(O)CCN(C[C@H](O)c3ccc4c(c3C)COC4=O)CC2)sn1` [Example 39, (R)-4-hydroxy-1-(2-hydroxy-2-(4-methyl-1-oxo-1,3-dihydroisobenzofuran-5-yl)ethyl)-N-(3-methylisothiazol-5-yl)piperidine-4-carboxamide], the concentration for half-maximal inhibition (IC50) was found to be 220 nM.

Turning to `Cc1nsc(NC(=O)C2(O)CCN(C[C@H](O)c3ccc4c(c3C)COC4=O)CC2)n1` [Example 40, (R)-4-hydroxy-1-(2-hydroxy-2-(4-methyl-1-oxo-1,3-dihydroisobenzofuran-5-yl)ethyl)-N-(3-methyl-1,2,4-thiadiazol-5-yl)piperidine-4-carboxamide], the half-maximal inhibitory concentration (IC50) was 420 nM.

With `Cc1c([C@@H](O)CN2CCC(C(=O)N(C)c3ccns3)CC2)ccc2c1COC2=O` [Example 41, 1-[(2R)-2-hydroxy-2-(4-methyl-1-oxo-1,3-dihydro-2-benzofuran-5-yl)ethyl]-N-(isothiazol-5-yl)-N-methylpiperidine-4-carboxamide], the half-maximal inhibitory concentration (IC50) stood at 10 nM.

`Cl.[2H]C([2H])([2H])N(C(=O)C1CCN(C[C@H](O)c2ccc3c(c2C)COC3=O)CC1)c1ccns1` [Example 42, 1-[(2R)-2-hydroxy-2-(4-methyl-1-oxo-1,3-dihydro-2-benzofuran-5-yl)ethyl]-N-(isothiazol-5-yl)-N-trideuteromethylpiperidine-4-carboxamide]: the concentration for half-maximal inhibition (IC50) was 20 nM.
